# Assay results from publication PMC9475448, “What a difference a methylene makes: replacing Glu with Asp or Aad in the Lys-urea-Glu pharmacophore of PSMA-targeting radioligands to reduce kidney and salivary gland uptake” (Theranostics, 2022).
# How the values were obtained:
# PSMA = target: T1, PSMA (Homo sapiens, UniProt Q04609); test: In vitro competition binding assay using LNCaP cells and [18F]DCFPyL as radioligand; details: displacement of [18F]DCFPyL from LNCaP cells, n = 3; read-out: PSMA binding affinity (Ki)
# T1 construct: endogenous in cells; host or cells: LNCaP prostate cancer cells
# Procedure: The binding assays were conducted following previously published procedures using LNCaP cells and [^18F]DCFPyL as the radioligand [17]-[19]. Briefly, LNCaP cells (400,000/well) were plated onto a 24-well poly-D-lysine coated plate for 48 h. Growth media was removed and replaced with HEPES buffered saline (50 mM HEPES, pH 7.5, 0.9% sodium chloride) and the cells were incubated for 1 h at 37 °C. [^18F]DCFPyL (0.1 nM) was added to each well (in triplicate) containing various concentrations (0.5 mM - 0.05 nM) of tested nonradioactive Ga-complexed compounds. Non-specific binding was determined in the presence of 10 µM non-radiolabeled DCFPyL. The assay mixtures were further incubated for 1 h at 37 °C with gentle agitation. Then, the buffer and radioligand were removed, and cells were washed twice with cold HEPES buffered saline. To harvest the cells, 400 µL of 0.25 % trypsin solution was added to each well. Radioactivity was measured on a PerkinElmer (Waltham, MA) Wizard2 2480 automatic gamma counter. Data analyses of Ki were performed using the nonlinear regression algorithm of GraphPad (San Diego, CA) Prism 7 software.
# LNCaP tumor-bearing mice = test: Radioligand therapy study in LNCaP tumor-bearing NRG mice; details: 500 pmol nonradioactive
# T1 sequence (Q04609 whole entry): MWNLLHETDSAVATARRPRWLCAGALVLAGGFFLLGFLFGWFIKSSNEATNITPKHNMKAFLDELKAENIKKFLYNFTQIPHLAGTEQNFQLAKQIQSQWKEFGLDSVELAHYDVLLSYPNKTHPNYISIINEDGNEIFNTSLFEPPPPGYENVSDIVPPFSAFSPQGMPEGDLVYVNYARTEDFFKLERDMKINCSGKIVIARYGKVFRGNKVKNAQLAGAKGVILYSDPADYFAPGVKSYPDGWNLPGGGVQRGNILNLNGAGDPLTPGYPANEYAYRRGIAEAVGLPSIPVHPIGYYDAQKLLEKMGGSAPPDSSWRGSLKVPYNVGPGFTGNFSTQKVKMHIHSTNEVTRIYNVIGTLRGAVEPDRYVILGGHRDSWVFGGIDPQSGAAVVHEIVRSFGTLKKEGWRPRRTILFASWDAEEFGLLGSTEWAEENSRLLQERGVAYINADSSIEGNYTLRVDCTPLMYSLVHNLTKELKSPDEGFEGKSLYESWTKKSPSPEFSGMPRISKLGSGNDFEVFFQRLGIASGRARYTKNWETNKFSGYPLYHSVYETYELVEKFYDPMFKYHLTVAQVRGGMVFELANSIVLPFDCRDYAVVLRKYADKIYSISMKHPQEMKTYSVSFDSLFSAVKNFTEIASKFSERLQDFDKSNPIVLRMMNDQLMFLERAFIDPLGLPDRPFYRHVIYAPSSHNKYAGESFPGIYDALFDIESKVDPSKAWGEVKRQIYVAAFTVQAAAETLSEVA
Structure (SMILES),Ki (PSMA),Median survival (LNCaP tumor-bearing mice)
"O=C([O-])CN1CCN(CC(=O)[O-])CCN(CC(=O)NCC2CCC(C(=O)NC(Cc3c4ccccc4cc4ccccc34)C(=O)NCCCCC(NC(=O)NC(CCCCC(=O)O)C(=O)O)C(=O)O)CC2)CCN(CC(=O)[O-])CC1.[Ga+3] (single isomer, unassigned) [Ga-HTK03189A]",550 ± 35.7 nM,
O=C([O-])CN1CCN(CC(=O)[O-])CCN(CC(=O)NCC2CCC(C(=O)NC(Cc3c4ccccc4cc4ccccc34)C(=O)NCCCCC(NC(=O)NC(CCCC(=O)O)C(=O)O)C(=O)O)CC2)CCN(CC(=O)[O-])CC1.[Ga+3] (centres unmarked) [Ga-HTK03149],6.99 ± 0.8 nM,
O=C([O-])CN1CCN(CC(=O)[O-])CCN(CC(=O)NCC2CCC(C(=O)NC(Cc3c4ccccc4cc4ccccc34)C(=O)NCCCCC(NC(=O)NC(CC(=O)O)C(=O)O)C(=O)O)CC2)CCN(CC(=O)[O-])CC1.[Ga+3] (centres unmarked) [Ga-HTK03161],3.88 ± 0.66 nM,
O=C([O-])CN1CCN(CC(=O)[O-])CCN(CC(=O)NCC2CCC(C(=O)NC(Cc3c4ccccc4cc4ccccc34)C(=O)NCCCCC(NC(=O)NC(CCCC(=O)O)C(=O)O)C(=O)O)CC2)CCN(CC(=O)[O-])CC1.[Lu+3] (centres unmarked) [Lu-HTK03149],1.57 ± 0.42 nM,18 days
